Test results taken from patent US20230017045A1, “PYRIDINE AND PYRIMIDINE CARBOXYLATE HERBICIDES AND METHODS OF USE THEREOF” (Dow AgroSciences LLC, priority 2017, published 2023).

The molecules below were run on test plant species (assay: Post-emergent herbicidal activity test (greenhouse, foliar spray, visual growth reduction)). Conditions: post-emergence, 336 h, ECHCG: barnyardgrass (Echinochloa crus-galli), 140 g ai/ha, 14 days after application, read-out: Visual Growth Reduction (%) 14 Days After Application, ECHCG.
Type: in vivo
Summary of the method: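 Visual scoring 14 d after treatment (0 = no injury, 100 = complete control) against nontreated and solvent-blank plants gave percent growth reduction. Foliar application used a track sprayer delivering 187 L/ha to seedlings at first or second true leaf stage, grown at 23–29 °C day, ~15 h photoperiod.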

SMILES | pest or weed control at 140 g/ha [%]
COC(=O)c1nc(-c2cc(C#N)c(C(F)(F)F)cc2Cl)c(F)cc1Cl [F321, Methyl 3-chloro-6-(2-chloro-5-cyano-4-(trifluoromethyl)phenyl)-5-fluoropicolinate] | 30 to 44
O=C(O)c1nc(-c2c(Cl)cc(C(F)(F)F)cc2[N+](=O)[O-])ccc1Cl [F224, 3-Chloro-6-(2-chloro-6-nitro-4-(trifluoromethyl)phenyl)picolinic acid] | 0 to 29
COC(=O)c1nc(-c2cc(Br)c(C(F)(F)F)cc2Cl)c(Cl)cc1Cl [F257, Methyl 6-(5-bromo-2-chloro-4-(trifluoromethyl)phenyl)-3,5-dichloropicolinate] | 0 to 29

Same assay, conditions: post-emergence, 336 h, IPOHE: ivy-leaf morning glory (Ipomoea hederacea), 140 g ai/ha, 14 days after application, read-out: Visual Growth Reduction (%) 14 Days After Application, IPOHE

SMILES | pest or weed control at 140 g/ha [%]
COC(=O)c1nc(-c2cc(C#N)c(C(F)(F)F)cc2Cl)c(F)cc1Cl [F321, Methyl 3-chloro-6-(2-chloro-5-cyano-4-(trifluoromethyl)phenyl)-5-fluoropicolinate] | 85 to 94
O=C(O)c1nc(-c2c(Cl)cc(C(F)(F)F)cc2[N+](=O)[O-])ccc1Cl [F224, 3-Chloro-6-(2-chloro-6-nitro-4-(trifluoromethyl)phenyl)picolinic acid] | 95 to 100
COC(=O)c1nc(-c2cc(Br)c(C(F)(F)F)cc2Cl)c(Cl)cc1Cl [F257, Methyl 6-(5-bromo-2-chloro-4-(trifluoromethyl)phenyl)-3,5-dichloropicolinate] | 85 to 94

Same assay, conditions: post-emergence, 336 h, KCHSC: kochia (Bassia scoparia), 140 g ai/ha, 14 days after application, read-out: Visual Growth Reduction (%) 14 Days After Application, KCHSC

SMILES | pest or weed control at 140 g/ha [%]
COC(=O)c1nc(-c2cc(C#N)c(C(F)(F)F)cc2Cl)c(F)cc1Cl [F321, Methyl 3-chloro-6-(2-chloro-5-cyano-4-(trifluoromethyl)phenyl)-5-fluoropicolinate] | 0 to 29
O=C(O)c1nc(-c2c(Cl)cc(C(F)(F)F)cc2[N+](=O)[O-])ccc1Cl [F224, 3-Chloro-6-(2-chloro-6-nitro-4-(trifluoromethyl)phenyl)picolinic acid] | 45 to 59
COC(=O)c1nc(-c2cc(Br)c(C(F)(F)F)cc2Cl)c(Cl)cc1Cl [F257, Methyl 6-(5-bromo-2-chloro-4-(trifluoromethyl)phenyl)-3,5-dichloropicolinate] | 0 to 29

Same assay, conditions: post-emergence, 336 h, ORYSA: rice (Oryza sativa), 140 g ai/ha, 14 days after application, read-out: Visual Growth Reduction (%) 14 Days After Application, ORYSA

SMILES | pest or weed control at 140 g/ha [%]
COC(=O)c1nc(-c2cc(C#N)c(C(F)(F)F)cc2Cl)c(F)cc1Cl [F321, Methyl 3-chloro-6-(2-chloro-5-cyano-4-(trifluoromethyl)phenyl)-5-fluoropicolinate] | 0 to 29
O=C(O)c1nc(-c2c(Cl)cc(C(F)(F)F)cc2[N+](=O)[O-])ccc1Cl [F224, 3-Chloro-6-(2-chloro-6-nitro-4-(trifluoromethyl)phenyl)picolinic acid] | 45 to 59
COC(=O)c1nc(-c2cc(Br)c(C(F)(F)F)cc2Cl)c(Cl)cc1Cl [F257, Methyl 6-(5-bromo-2-chloro-4-(trifluoromethyl)phenyl)-3,5-dichloropicolinate] | 0 to 29

Same assay, conditions: post-emergence, 336 h, SETFA: giant foxtail (Setaria faberi), 140 g ai/ha, 14 days after application, read-out: Visual Growth Reduction (%) 14 Days After Application, SETFA

SMILES | pest or weed control at 140 g/ha [%]
COC(=O)c1nc(-c2cc(C#N)c(C(F)(F)F)cc2Cl)c(F)cc1Cl [F321, Methyl 3-chloro-6-(2-chloro-5-cyano-4-(trifluoromethyl)phenyl)-5-fluoropicolinate] | 75 to 84
O=C(O)c1nc(-c2c(Cl)cc(C(F)(F)F)cc2[N+](=O)[O-])ccc1Cl [F224, 3-Chloro-6-(2-chloro-6-nitro-4-(trifluoromethyl)phenyl)picolinic acid] | 45 to 59
COC(=O)c1nc(-c2cc(Br)c(C(F)(F)F)cc2Cl)c(Cl)cc1Cl [F257, Methyl 6-(5-bromo-2-chloro-4-(trifluoromethyl)phenyl)-3,5-dichloropicolinate] | 0 to 29

Same assay, conditions: post-emergence, 336 h, SORVU: grain sorghum (Sorghum vulgare), 140 g ai/ha, 14 days after application, read-out: Visual Growth Reduction (%) 14 Days After Application, SORVU

SMILES | pest or weed control at 140 g/ha [%]
COC(=O)c1nc(-c2cc(C#N)c(C(F)(F)F)cc2Cl)c(F)cc1Cl [F321, Methyl 3-chloro-6-(2-chloro-5-cyano-4-(trifluoromethyl)phenyl)-5-fluoropicolinate] | 95 to 100
O=C(O)c1nc(-c2c(Cl)cc(C(F)(F)F)cc2[N+](=O)[O-])ccc1Cl [F224, 3-Chloro-6-(2-chloro-6-nitro-4-(trifluoromethyl)phenyl)picolinic acid] | 60 to 74
COC(=O)c1nc(-c2cc(Br)c(C(F)(F)F)cc2Cl)c(Cl)cc1Cl [F257, Methyl 6-(5-bromo-2-chloro-4-(trifluoromethyl)phenyl)-3,5-dichloropicolinate] | 0 to 29

Same assay, conditions: post-emergence, 336 h, STEME: common chickweed (Stellaria media), 140 g ai/ha, 14 days after application, read-out: Visual Growth Reduction (%) 14 Days After Application, STEME

SMILES | pest or weed control at 140 g/ha [%]
COC(=O)c1nc(-c2cc(C#N)c(C(F)(F)F)cc2Cl)c(F)cc1Cl [F321, Methyl 3-chloro-6-(2-chloro-5-cyano-4-(trifluoromethyl)phenyl)-5-fluoropicolinate] | 0 to 29
O=C(O)c1nc(-c2c(Cl)cc(C(F)(F)F)cc2[N+](=O)[O-])ccc1Cl [F224, 3-Chloro-6-(2-chloro-6-nitro-4-(trifluoromethyl)phenyl)picolinic acid] | 0 to 29
COC(=O)c1nc(-c2cc(Br)c(C(F)(F)F)cc2Cl)c(Cl)cc1Cl [F257, Methyl 6-(5-bromo-2-chloro-4-(trifluoromethyl)phenyl)-3,5-dichloropicolinate] | 0 to 29

Same assay, conditions: post-emergence, 336 h, TRZAS: wheat, spring (Triticum aestivum), 140 g ai/ha, 14 days after application, read-out: Visual Growth Reduction (%) 14 Days After Application, TRZAS

SMILES | pest or weed control at 140 g/ha [%]
COC(=O)c1nc(-c2cc(C#N)c(C(F)(F)F)cc2Cl)c(F)cc1Cl [F321, Methyl 3-chloro-6-(2-chloro-5-cyano-4-(trifluoromethyl)phenyl)-5-fluoropicolinate] | 30 to 44
O=C(O)c1nc(-c2c(Cl)cc(C(F)(F)F)cc2[N+](=O)[O-])ccc1Cl [F224, 3-Chloro-6-(2-chloro-6-nitro-4-(trifluoromethyl)phenyl)picolinic acid] | 0 to 29
COC(=O)c1nc(-c2cc(Br)c(C(F)(F)F)cc2Cl)c(Cl)cc1Cl [F257, Methyl 6-(5-bromo-2-chloro-4-(trifluoromethyl)phenyl)-3,5-dichloropicolinate] | 0 to 29

Same assay, conditions: post-emergence, 336 h, blackgrass (Alopecurus myosuroides), 14 Days After Application, 140 g ai/ha, read-out: Visual Growth Reduction (%) ALOMY

SMILES | pest or weed control at 140 g/ha [%]
COC(=O)c1nc(-c2cc(C#N)c(C(F)(F)F)cc2Cl)c(F)cc1Cl [F321, Methyl 3-chloro-6-(2-chloro-5-cyano-4-(trifluoromethyl)phenyl)-5-fluoropicolinate] | 0 to 29
O=C(O)c1nc(-c2c(Cl)cc(C(F)(F)F)cc2[N+](=O)[O-])ccc1Cl [F224, 3-Chloro-6-(2-chloro-6-nitro-4-(trifluoromethyl)phenyl)picolinic acid] | 0 to 29
COC(=O)c1nc(-c2cc(Br)c(C(F)(F)F)cc2Cl)c(Cl)cc1Cl [F257, Methyl 6-(5-bromo-2-chloro-4-(trifluoromethyl)phenyl)-3,5-dichloropicolinate] | 0 to 29

Same assay, conditions: post-emergence, 336 h, canada thistle (Cirsium arvense), 14 Days After Application, 140 g ai/ha, read-out: Visual Growth Reduction (%) CIRAR

SMILES | pest or weed control at 140 g/ha [%]
COC(=O)c1nc(-c2cc(C#N)c(C(F)(F)F)cc2Cl)c(F)cc1Cl [F321, Methyl 3-chloro-6-(2-chloro-5-cyano-4-(trifluoromethyl)phenyl)-5-fluoropicolinate] | 75 to 84
O=C(O)c1nc(-c2c(Cl)cc(C(F)(F)F)cc2[N+](=O)[O-])ccc1Cl [F224, 3-Chloro-6-(2-chloro-6-nitro-4-(trifluoromethyl)phenyl)picolinic acid] | 45 to 59
COC(=O)c1nc(-c2cc(Br)c(C(F)(F)F)cc2Cl)c(Cl)cc1Cl [F257, Methyl 6-(5-bromo-2-chloro-4-(trifluoromethyl)phenyl)-3,5-dichloropicolinate] | 0 to 29

Same assay, conditions: post-emergence, 336 h, crabgrass (Digitaria sanguinalis), 14 Days After Application, 140 g ai/ha, read-out: Visual Growth Reduction (%) DIGSA

SMILES | pest or weed control at 140 g/ha [%]
COC(=O)c1nc(-c2cc(C#N)c(C(F)(F)F)cc2Cl)c(F)cc1Cl [F321, Methyl 3-chloro-6-(2-chloro-5-cyano-4-(trifluoromethyl)phenyl)-5-fluoropicolinate] | 85 to 94
O=C(O)c1nc(-c2c(Cl)cc(C(F)(F)F)cc2[N+](=O)[O-])ccc1Cl [F224, 3-Chloro-6-(2-chloro-6-nitro-4-(trifluoromethyl)phenyl)picolinic acid] | 75 to 84
COC(=O)c1nc(-c2cc(Br)c(C(F)(F)F)cc2Cl)c(Cl)cc1Cl [F257, Methyl 6-(5-bromo-2-chloro-4-(trifluoromethyl)phenyl)-3,5-dichloropicolinate] | 0 to 29

Same assay, conditions: post-emergence, 336 h, lambsquarters (Chenopodium album), 14 Days After Application, 140 g ai/ha, read-out: Visual Growth Reduction (%) CHEAL

SMILES | pest or weed control at 140 g/ha [%]
COC(=O)c1nc(-c2cc(C#N)c(C(F)(F)F)cc2Cl)c(F)cc1Cl [F321, Methyl 3-chloro-6-(2-chloro-5-cyano-4-(trifluoromethyl)phenyl)-5-fluoropicolinate] | 95 to 100
O=C(O)c1nc(-c2c(Cl)cc(C(F)(F)F)cc2[N+](=O)[O-])ccc1Cl [F224, 3-Chloro-6-(2-chloro-6-nitro-4-(trifluoromethyl)phenyl)picolinic acid] | 95 to 100
COC(=O)c1nc(-c2cc(Br)c(C(F)(F)F)cc2Cl)c(Cl)cc1Cl [F257, Methyl 6-(5-bromo-2-chloro-4-(trifluoromethyl)phenyl)-3,5-dichloropicolinate] | 75 to 84

Same assay, conditions: post-emergence, 336 h, redroot pigweed (Amaranthus retroflexus), 14 Days After Application, 140 g ai/ha, read-out: Visual Growth Reduction (%) AMARE

SMILES | pest or weed control at 140 g/ha [%]
COC(=O)c1nc(-c2cc(C#N)c(C(F)(F)F)cc2Cl)c(F)cc1Cl [F321, Methyl 3-chloro-6-(2-chloro-5-cyano-4-(trifluoromethyl)phenyl)-5-fluoropicolinate] | 30 to 44
O=C(O)c1nc(-c2c(Cl)cc(C(F)(F)F)cc2[N+](=O)[O-])ccc1Cl [F224, 3-Chloro-6-(2-chloro-6-nitro-4-(trifluoromethyl)phenyl)picolinic acid] | 85 to 94
COC(=O)c1nc(-c2cc(Br)c(C(F)(F)F)cc2Cl)c(Cl)cc1Cl [F257, Methyl 6-(5-bromo-2-chloro-4-(trifluoromethyl)phenyl)-3,5-dichloropicolinate] | 0 to 29

Same assay, conditions: post-emergence, 336 h, wild oat (Avena fatua), 14 Days After Application, 140 g ai/ha, read-out: Visual Growth Reduction (%) AVEFA

SMILES | pest or weed control at 140 g/ha [%]
COC(=O)c1nc(-c2cc(C#N)c(C(F)(F)F)cc2Cl)c(F)cc1Cl [F321, Methyl 3-chloro-6-(2-chloro-5-cyano-4-(trifluoromethyl)phenyl)-5-fluoropicolinate] | 75 to 84
O=C(O)c1nc(-c2c(Cl)cc(C(F)(F)F)cc2[N+](=O)[O-])ccc1Cl [F224, 3-Chloro-6-(2-chloro-6-nitro-4-(trifluoromethyl)phenyl)picolinic acid] | 0 to 29
COC(=O)c1nc(-c2cc(Br)c(C(F)(F)F)cc2Cl)c(Cl)cc1Cl [F257, Methyl 6-(5-bromo-2-chloro-4-(trifluoromethyl)phenyl)-3,5-dichloropicolinate] | 0 to 29

Same assay, conditions: post-emergence, 336 h, yellow nutsedge (Cyperus esculentus), 14 Days After Application, 140 g ai/ha, read-out: Visual Growth Reduction (%) CYPES

SMILES | pest or weed control at 140 g/ha [%]
COC(=O)c1nc(-c2cc(C#N)c(C(F)(F)F)cc2Cl)c(F)cc1Cl [F321, Methyl 3-chloro-6-(2-chloro-5-cyano-4-(trifluoromethyl)phenyl)-5-fluoropicolinate] | 0 to 29
O=C(O)c1nc(-c2c(Cl)cc(C(F)(F)F)cc2[N+](=O)[O-])ccc1Cl [F224, 3-Chloro-6-(2-chloro-6-nitro-4-(trifluoromethyl)phenyl)picolinic acid] | 0 to 29
COC(=O)c1nc(-c2cc(Br)c(C(F)(F)F)cc2Cl)c(Cl)cc1Cl [F257, Methyl 6-(5-bromo-2-chloro-4-(trifluoromethyl)phenyl)-3,5-dichloropicolinate] | 0 to 29
